Measurements taken from patent US9284301B2, “Soluble guanylate cyclase activators” (Merck Sharp & Dohme Corp., priority 2010, dated 2016).

Target: T1, sGC α1/β1 heterodimer (Homo sapiens, UniProt Q02108+Q02153)
T1 construct: expressed in transfected cells; host or cells: CHO-K1 (clone #7, CHO-K1/sGC)
T1 sequence (Q02108 1-690): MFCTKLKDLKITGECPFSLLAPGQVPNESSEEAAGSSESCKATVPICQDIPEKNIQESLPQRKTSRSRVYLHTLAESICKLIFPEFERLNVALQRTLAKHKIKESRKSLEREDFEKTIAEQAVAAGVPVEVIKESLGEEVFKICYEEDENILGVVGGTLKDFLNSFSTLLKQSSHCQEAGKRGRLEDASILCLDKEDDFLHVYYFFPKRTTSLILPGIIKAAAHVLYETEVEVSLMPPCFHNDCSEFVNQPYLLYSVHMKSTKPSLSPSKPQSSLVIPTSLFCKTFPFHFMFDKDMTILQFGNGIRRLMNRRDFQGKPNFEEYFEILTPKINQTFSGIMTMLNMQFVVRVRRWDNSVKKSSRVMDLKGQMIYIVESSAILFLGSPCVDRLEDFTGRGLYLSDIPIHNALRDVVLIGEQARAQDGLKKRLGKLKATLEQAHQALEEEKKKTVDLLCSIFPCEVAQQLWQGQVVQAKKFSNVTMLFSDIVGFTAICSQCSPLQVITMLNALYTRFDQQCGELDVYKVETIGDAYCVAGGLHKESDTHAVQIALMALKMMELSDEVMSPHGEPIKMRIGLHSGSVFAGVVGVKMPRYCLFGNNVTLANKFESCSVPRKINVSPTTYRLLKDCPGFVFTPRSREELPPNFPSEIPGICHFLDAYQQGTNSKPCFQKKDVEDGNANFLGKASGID
T1 sequence (Q02153 1-619): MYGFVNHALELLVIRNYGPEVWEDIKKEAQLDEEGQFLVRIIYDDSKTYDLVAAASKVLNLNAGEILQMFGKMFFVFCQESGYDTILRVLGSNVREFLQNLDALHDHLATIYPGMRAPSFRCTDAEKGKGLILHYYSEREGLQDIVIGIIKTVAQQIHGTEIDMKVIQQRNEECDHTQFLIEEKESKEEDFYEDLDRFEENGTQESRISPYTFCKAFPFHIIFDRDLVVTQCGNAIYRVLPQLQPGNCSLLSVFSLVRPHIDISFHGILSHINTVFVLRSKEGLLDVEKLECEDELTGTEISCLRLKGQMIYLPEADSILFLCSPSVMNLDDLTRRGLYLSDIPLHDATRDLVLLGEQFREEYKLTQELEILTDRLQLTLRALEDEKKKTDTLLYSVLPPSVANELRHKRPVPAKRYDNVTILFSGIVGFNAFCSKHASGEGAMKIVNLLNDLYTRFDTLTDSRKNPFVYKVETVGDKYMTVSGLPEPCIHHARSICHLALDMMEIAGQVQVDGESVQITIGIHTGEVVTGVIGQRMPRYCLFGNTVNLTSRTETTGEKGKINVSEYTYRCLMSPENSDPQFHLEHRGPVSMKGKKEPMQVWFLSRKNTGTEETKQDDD
Assay: Cell-based sGC Functional Assay (CASA Assay): cGMP generation in CHO-K1/sGC cells, HTRF readout
Conditions: without ODQ incubation; for EC50: read-out: IP (inflection point)
Text: Cell-based sGC Functional Assay (CASA Assay) Rationale: sGC is a heme-containing enzyme that converts GTP to secondary messenger cGMP. Increases in cGMP levels affect several physiological processes including vasorelaxation through multiple downstream pathways. […] Heme-dependent activators (HDAs) preferentially activate sGC containing a ferrous Deme group. To determine the effect of sGC activators on enzyme activity, the CASA assay was developed to monitor the generation of cGMP in a cell line that stably expresses the heterodimeric sGC protein. Methods: A CHO-K1 cell line stably expressing the sGC α1/β1 heterodimer was generated using a standard transfection protocol. CHO-K1 cells were transfected with plasmids pIREShyghsGCα1 and pIRESneo-hsGCβ1 simultaneously using FUGENE reagent. Clones that stably express both subunits were selected with hygromycin and neomycin for ˜2 weeks. Clone #7 was chosen for the assay and was designated CHO-K1/sGC. CHO-K1/sGC cells were maintained in F-K12 medium containing 10% heat-inactivated Fetal Bovine Serum (FBS), 100 μg/mL penicillin/streptomycin, 0.5 mg/mL hygromycin and 0.25 mg/mL G418. On the day of the assay, cells were harvested in EBSS Assay Buffer (EAB) containing 5 mM MgCl2, 10 mM HEPES (4-(2-hydroxyethyl)piperazine-1-ethanesulfonic acid) and 0.05% BSA (bovine serum albumin) and cell density was adjusted to 2×10^6/mL with EAB. IBMX (3-isobutyl-1-methylxanthin, 0.5 mM) was added to inhibit degradation of cGMP. Compounds were diluted from DMSO stock solutions and added to the assay at a final DMSO concentration of 1%. Cells were incubated with compounds of the invention, in the presence and/or absence of 10 μM of 1H-(1,2,4)oxadiazolo(4,3-a) quinoxalin-1-one (ODQ), for 1 hr at 37° C. At the end of the incubation period, the reaction was terminated and the cells were lysed. The level of intracellular cGMP was determined using an HTRF-based assay kit (from CisBio, 62GM2PEC), which detects the displacement of a fluorescence labeled cGMP from its specific antibody. HTRF is a TR-FRET based technology that uses the principles of TRF and FRET. The amount of cGMP was plotted against compound concentration in PRISM software and the inflection point (IP) and maximum fold induction over DMSO control were derived from the plot.

Compound | Maximum fold induction over DMSO control | EC50
Cc1c(-c2cnc(-c3nc(Cc4c(F)ccc(F)c4F)n4ncccc34)nc2N)c(C(F)(F)F)nn1C [Example 3, 5-[1,5-dimethyl-3-(trifluoromethyl)-1H-pyrazol-4-yl]-2-[7-(2,3,6-trifluorobenzyl)imidazo[1,5-b]pyridazin-5-yl]pyrimidin-4-amine] | 71 fold | 0.499 µM
Nc1nc(-c2nc(Cc3c(F)ccc(F)c3F)n3cc(F)ccc23)ncc1-c1cccnc1 [Example 56, 2-[6-fluoro-3-(2,3,6-trifluorobenzyl)imidazo[1,5-a]pyridin-1-yl]-5-pyridin-3-ylpyrimidin-4-amine] | 322 fold | 0.397 µM
Nc1nc(-n2nc(CCC3CCCC3)c3ccccc32)nc(N)c1-c1cccnc1 [Example 208, 2-[3-(2-cyclopentylethyl)-1H-indazol-1-yl]-5-pyridin-3-ylpyrimidine-4,6-diamine] | 244 fold | 0.54 µM
Nc1nc(-n2nc(Cc3c(F)ccc(F)c3F)c3cc(Cl)ccc32)nc(N)c1NC(=O)C1CC1 [Example 178, N-{4,6-diamino-2-[5-chloro-3-(2,3,6-trifluorobenzyl)-1H-indazol-1-yl]pyrimidin-5-yl}cyclopropanecarboxamide] | 74 fold | 0.524 µM

The next compounds have a lower EC50 than those just listed; values first:

Maximum fold induction over DMSO control | EC50 | Compound
129 fold | 0.296 µM | Nc1nc(-c2nc(Cc3c(F)ccc(F)c3F)n3ncccc23)ncc1-c1cccc2ncccc12 [Example 7, 5-quinolin-5-yl-2-[7-(2,3,6-trifluorobenzyl)imidazo[1,5-b]pyridazin-5-yl]pyrimidin-4-amine]
55 fold | 0.178 µM | Cc1cc(-c2cnc(-c3nc(Cc4c(F)ccc(F)c4F)n4ncccc34)nc2N)ccn1 [Example 4, 5-(2-methylpyridin-4-yl)-2-[7-(2,3,6-trifluorobenzyl)imidazo[1,5-b]pyridazin-5-yl]pyrimidin-4-amine]
234 fold | 0.17 µM | Nc1nc(-c2nc(Cc3c(F)ccc(F)c3F)n3cc(F)ccc23)ncc1-c1ccnc2ccc(F)cc12 [Example 73, 5-(6-fluoroquinolin-4-yl)-2-[6-fluoro-3-(2,3,6-trifluoro-benzyl)imidazo[1,5-a]pyridin-1-yl]pyrimidin-4-amine]
127 fold | 0.034 µM | Cn1cc(-c2c(N)nc(-n3nc(Cc4c(F)ccc(F)c4F)c4cc(Cl)ccc43)nc2N)cn1 [Example 83, 2-[5-chloro-3-(2,3,6-trifluorobenzyl)-1H-indazol-1-yl]-5-(1-methyl-1H-pyrazol-4-yl)pyrimidine-4,6-diamine]
